{
  "source": "patent US20210177814A1",
  "about": "“USE OF GUANABENZ OR DERIVATES THEREOF FOR THE TREATMENT OF TYPE I IFN-DEPENDENT PATHOLOGIES” (INSERM (Institut National de la Santé et de la Recherche …, priority 2018, published 2021)",
  "key": {"[1]": {"tested_on": "TLR9 signal transduction pathway", "experiment": "Phospho-flow detection of rpS6 phosphorylation after CpG exposure", "format": "cell-based", "conditions": "CAL-1 and human B cells, 15 min to 1 h of CpG exposure, data not shown"}, "hTLR7": {"target": "T1, hTLR7 (Homo sapiens, UniProt Q9NYK1)", "T1 construct": "expressed in transfected cells; host or cells: HEK-Blue (HEK 293) hTLR7 reporter cells", "T1 sequence (Q9NYK1 27-1049)": "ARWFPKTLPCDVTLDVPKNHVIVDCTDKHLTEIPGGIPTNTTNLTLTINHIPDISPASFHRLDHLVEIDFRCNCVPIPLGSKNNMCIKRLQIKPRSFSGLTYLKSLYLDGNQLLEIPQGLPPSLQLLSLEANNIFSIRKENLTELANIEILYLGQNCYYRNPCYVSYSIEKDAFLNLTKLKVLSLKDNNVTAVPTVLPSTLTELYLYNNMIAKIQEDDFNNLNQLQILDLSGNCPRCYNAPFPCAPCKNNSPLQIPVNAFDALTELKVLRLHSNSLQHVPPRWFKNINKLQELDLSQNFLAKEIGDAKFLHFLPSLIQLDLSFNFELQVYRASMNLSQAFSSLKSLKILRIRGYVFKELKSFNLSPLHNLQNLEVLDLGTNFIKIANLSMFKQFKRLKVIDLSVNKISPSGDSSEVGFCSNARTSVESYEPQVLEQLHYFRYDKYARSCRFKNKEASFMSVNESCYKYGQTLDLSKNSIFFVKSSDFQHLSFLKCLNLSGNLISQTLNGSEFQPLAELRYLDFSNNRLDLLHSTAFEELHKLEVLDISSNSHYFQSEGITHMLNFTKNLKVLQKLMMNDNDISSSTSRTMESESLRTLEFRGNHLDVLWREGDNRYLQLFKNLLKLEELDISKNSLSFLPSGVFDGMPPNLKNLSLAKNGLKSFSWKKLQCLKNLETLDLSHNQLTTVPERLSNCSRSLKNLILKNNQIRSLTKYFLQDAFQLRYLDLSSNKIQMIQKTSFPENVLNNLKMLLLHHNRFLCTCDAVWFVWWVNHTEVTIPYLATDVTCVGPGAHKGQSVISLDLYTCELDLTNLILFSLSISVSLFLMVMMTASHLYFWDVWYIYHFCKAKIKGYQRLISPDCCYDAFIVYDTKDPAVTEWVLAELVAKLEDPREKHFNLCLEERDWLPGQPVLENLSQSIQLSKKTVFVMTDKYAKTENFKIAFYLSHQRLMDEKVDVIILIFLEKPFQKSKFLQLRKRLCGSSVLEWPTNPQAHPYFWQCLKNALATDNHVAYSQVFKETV", "experiment": "HEK-Blue hTLR7 SEAP reporter assay", "format": "cell-based", "conditions": "5 μg/mL imiquimod, GBZ 50 μM", "experimental": "FIG. 1: Guanabenz inhibits TLR3 and TLR9 activation in mouse Flt3-L DCs and human blood pDCs. A) Sorted bone marrow derived Flt3L-DCs were activated for 6 h with 10 μg/mL poly I:C LMW (TLR3 in DC1) or 1 μM ODN 1585 (TLR9 in pDCs). GBZ was added at 50 μM and inhibited IFN-β and Interleukin-6 (IL-6) production in activated cells. B) hTLR4, hTLR3, hTLR9 and hTLR7 expressed in the reporter HEK-Blue™ cells are inhibited by GBZ. TLR-expressing HEK-Blue™ cells were respectively activated with 100 ng/mL LPS, 10 μg/mL poly I:C LMW, 2.5 μM ODN 2006 or 5 μg/mL imiquimod, respectively. GBZ was added at 50 μM. TLR activity was measured indirectly through SEAP activity as absorbance at 405 nm. […] Protein concentration of IFN-α and TNF-α secreted were measured at the indicated time points or at 16 h. […]\nGiven the efficiency of GBZ on mouse TLR3 and TLR9, we turned to human TLRs, in order to extend the relevance of our observations. GBZ-mediated inhibition was first evaluated on NF-kB signaling by monitoring secreted alkaline phosphatase (SEAP) reporter levels in HEK-293 cells expressing TLR3, TLR4, TLR7, TLR9 (FIG. 1B). […] The functionality of the TLR9 transduction pathway was next evaluated by using phospho-flow detection of 40S ribosomal protein S6 (rpS6) phosphorylation, a well characterized early signaling event down-stream of TLR activation by LPS or viruses."}},
  "data": [
    {"compound": "NC(N)=N/N=C/c1c(Cl)cccc1Cl", "note": "[GBZ, 2-(2,6-dichlorobenzylidene)-hydrazinecarboximidamide]", "values": [
      {"measurement": "rpS6 phosphorylation", "setting": "[1]", "value": "strong reduction"},
      {"measurement": "TLR7-dependent activation of the SEAP reporter", "setting": "hTLR7", "value": "inhibited"}
    ]}
  ]
}
